Series [1] is described as follows: Luminescence Cell-Based Dose Confirmation HTS to Identify Activators of 5'UTR Stem-Loop Driven Alpha-Synuclein mRNA Translation in H4 Neuroglioblastoma Cells. [Related pubchem assays: 1829 (Project Summary), 1814 (Primary HTS)]. It is filed as functional.
Series [2] can be described thus: Luminescence Cell-Based Dose Response HTS to Identify Activators of Luciferase Translation or Activity in H4 […] Cells. [Related pubchem assays: 1829 (Project Summary), 1814 (Primary HTS)]. It is filed as functional.
A further series has as its system H4. Put plainly: Luminescence Cell-Based Dose Response HTS to Identify Activators of 5'UTR Stem-Loop Driven Prion Protein mRNA Translation in H4 Neuroglioblastoma Cells. [Related pubchem assays: 1829 (Project Summary), 1814 (Primary HTS)]. To be noted: Homo sapiens. It is filed as functional.
In series [3] the target is T1, Corticotropin-releasing factor receptor 2/Corticotropin-releasing factor-binding protein (Homo sapiens, UniProt P24387+Q13324).
T1 sequence (Q13324 whole entry): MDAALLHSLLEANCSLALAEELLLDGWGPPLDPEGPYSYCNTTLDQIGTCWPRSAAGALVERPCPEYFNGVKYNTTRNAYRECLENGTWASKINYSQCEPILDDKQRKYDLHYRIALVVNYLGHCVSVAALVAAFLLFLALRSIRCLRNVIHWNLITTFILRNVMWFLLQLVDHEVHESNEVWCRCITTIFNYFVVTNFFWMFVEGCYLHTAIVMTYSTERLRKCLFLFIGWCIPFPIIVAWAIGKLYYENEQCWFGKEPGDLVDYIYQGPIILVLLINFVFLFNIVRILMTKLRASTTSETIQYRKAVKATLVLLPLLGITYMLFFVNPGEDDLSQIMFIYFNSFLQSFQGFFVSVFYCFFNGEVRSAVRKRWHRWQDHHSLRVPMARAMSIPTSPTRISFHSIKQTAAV
T1 sequence (P24387 whole entry): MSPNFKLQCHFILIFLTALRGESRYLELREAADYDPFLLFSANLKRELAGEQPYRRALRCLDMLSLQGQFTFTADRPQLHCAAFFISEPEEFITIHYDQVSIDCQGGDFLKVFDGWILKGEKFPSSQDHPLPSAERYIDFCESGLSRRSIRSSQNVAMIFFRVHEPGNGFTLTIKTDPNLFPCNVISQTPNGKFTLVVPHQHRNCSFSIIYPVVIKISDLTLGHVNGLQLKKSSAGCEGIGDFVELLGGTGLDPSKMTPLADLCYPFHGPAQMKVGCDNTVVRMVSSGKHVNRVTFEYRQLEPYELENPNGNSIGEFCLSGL
Put plainly: Dose Response confirmation of uHTS hits for small molecule antagonists of the CRF-binding protein and CRF-R2 receptor complex. The format is functional. The note with it: read-out: IC50_Mean.

The target in series [4] is T1, Corticotropin-releasing factor receptor 2/Corticotropin-releasing factor-binding protein. The series can be described thus: activators of CRF receptor 2 with binding protein – uHTS hits, confirmation (AID 602473). The note with it: read-out: EC50_Mean. The format is functional.
Another series addresses Cytochrome P450 3A4 (Homo sapiens, UniProt P08684).
A further series has as its target Cytochrome P450 2C19 (Homo sapiens, UniProt P33261). Put plainly: Cytochrome panel assay with activity outcomes. Panel member name: p450-cyp2c19 Compounds with AC50 equal or less than 10 uM are considered active. It is filed as functional.
The target of the next series is Cytochrome P450 2C9 (Homo sapiens, UniProt P11712).
A further series concerns the target T2, Cytochrome P450 1A2 (Homo sapiens, UniProt P05177).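 Further: PubChem cytochrome P450 panel assay, CYP1A2 panel member.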
T2 sequence (P05177 whole entry): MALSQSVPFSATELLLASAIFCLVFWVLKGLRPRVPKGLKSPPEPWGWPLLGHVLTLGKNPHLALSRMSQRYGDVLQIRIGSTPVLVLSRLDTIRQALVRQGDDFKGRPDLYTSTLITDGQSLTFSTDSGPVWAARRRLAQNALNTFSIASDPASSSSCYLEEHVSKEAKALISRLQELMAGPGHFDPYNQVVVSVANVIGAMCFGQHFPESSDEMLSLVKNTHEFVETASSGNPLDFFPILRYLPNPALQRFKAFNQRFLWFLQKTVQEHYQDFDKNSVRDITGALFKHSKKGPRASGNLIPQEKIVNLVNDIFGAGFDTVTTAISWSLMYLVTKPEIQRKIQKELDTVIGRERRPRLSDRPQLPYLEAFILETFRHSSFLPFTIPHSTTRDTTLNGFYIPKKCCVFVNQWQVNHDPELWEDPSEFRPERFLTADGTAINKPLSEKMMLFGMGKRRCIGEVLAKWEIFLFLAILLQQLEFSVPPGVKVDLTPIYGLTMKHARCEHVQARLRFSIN

Another series addresses Cytochrome P450 2D6 (Homo sapiens, UniProt P10635).
Series [5] can be described thus: cells. It is filed as functional, cell-based.
The nature of series [6]: cells. The format is functional, cell-based. The source holds these as a separate data set.

Activity calls are given as the source filed them.

Sequence of Cytochrome P450 2C19 (P33261 whole entry): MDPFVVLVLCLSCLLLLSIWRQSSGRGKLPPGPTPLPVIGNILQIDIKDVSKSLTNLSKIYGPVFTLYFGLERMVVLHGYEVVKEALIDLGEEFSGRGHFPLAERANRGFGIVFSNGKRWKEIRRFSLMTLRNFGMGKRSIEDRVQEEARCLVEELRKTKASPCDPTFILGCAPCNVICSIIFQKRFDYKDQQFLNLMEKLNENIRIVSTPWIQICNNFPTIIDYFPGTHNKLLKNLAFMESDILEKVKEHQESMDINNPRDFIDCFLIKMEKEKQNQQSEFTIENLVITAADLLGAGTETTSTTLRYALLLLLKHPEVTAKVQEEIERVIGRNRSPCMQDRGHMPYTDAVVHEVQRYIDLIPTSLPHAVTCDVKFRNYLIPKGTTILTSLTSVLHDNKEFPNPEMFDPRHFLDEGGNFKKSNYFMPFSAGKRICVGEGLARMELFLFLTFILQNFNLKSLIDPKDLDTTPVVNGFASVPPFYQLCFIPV
Sequence of Cytochrome P450 3A4 (P08684 whole entry): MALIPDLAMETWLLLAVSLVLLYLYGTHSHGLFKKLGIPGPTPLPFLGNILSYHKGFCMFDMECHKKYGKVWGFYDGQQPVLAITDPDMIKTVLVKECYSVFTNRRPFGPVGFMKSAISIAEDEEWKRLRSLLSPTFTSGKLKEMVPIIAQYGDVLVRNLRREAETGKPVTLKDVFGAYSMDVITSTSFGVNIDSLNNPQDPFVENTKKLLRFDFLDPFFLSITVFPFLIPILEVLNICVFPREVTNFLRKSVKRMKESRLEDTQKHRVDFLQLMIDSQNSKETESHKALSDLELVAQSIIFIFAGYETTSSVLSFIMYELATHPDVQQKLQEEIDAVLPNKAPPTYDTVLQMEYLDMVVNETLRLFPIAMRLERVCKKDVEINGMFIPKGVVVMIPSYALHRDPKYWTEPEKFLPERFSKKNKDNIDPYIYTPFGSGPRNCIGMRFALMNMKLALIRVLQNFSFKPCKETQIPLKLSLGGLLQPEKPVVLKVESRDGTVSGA
Sequence of Cytochrome P450 2C9 (P11712 whole entry): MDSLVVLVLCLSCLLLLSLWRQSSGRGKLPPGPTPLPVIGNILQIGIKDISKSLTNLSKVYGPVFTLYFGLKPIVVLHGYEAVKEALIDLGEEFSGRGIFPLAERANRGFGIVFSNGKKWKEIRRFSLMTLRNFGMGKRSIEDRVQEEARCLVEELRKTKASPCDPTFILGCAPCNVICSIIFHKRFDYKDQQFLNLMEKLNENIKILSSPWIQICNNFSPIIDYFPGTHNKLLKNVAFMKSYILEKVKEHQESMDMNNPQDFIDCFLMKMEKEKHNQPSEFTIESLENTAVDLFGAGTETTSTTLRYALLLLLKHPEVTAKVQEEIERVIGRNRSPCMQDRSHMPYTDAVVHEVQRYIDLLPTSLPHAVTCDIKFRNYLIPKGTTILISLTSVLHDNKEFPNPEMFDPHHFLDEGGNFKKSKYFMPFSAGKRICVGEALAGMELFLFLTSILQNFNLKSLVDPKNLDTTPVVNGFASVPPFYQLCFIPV
Sequence of Cytochrome P450 2D6 (P10635 whole entry): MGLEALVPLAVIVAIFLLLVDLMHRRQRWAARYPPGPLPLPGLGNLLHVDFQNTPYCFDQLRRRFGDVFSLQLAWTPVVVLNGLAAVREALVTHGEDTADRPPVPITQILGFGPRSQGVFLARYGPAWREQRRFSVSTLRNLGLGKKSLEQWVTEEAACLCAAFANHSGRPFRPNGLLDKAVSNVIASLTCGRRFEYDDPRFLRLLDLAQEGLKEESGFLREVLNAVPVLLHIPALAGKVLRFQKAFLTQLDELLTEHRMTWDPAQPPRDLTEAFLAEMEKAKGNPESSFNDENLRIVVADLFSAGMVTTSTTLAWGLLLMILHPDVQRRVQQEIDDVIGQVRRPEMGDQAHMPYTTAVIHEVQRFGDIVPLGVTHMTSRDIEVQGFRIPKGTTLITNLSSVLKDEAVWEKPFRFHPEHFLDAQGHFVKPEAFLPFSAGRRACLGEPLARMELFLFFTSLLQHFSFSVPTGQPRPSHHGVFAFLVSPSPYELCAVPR

As to `CCC(C)[C@H](NC(=O)N1CC(=O)Nc2ccccc21)C(=O)Nc1ccccc1C` (some centres undefined), the EC50 was > 120 µM (not active) in [1], 27.5 µM (active) in [2] and > 120 µM (not active) in the series on H4.

Regarding `Cc1cc(N2CCCC2)ccc1/C=C1\NC(=S)N(C)C1=O`, the EC50 in series [1] was 22.1 µM (active); in series [2] it was 20 µM (active); in the series with H4, 35.5 µM (active).

With `c1ccc(C2=Nc3ccccc3SC2c2nc3ccccc3[nH]2)cc1` (centres undefined), the values for the EC50 (in series [1]; in [2]; with H4) were 0.47 µM (active), 24.1 µM (active) and > 120 µM (not active), respectively.

As for `COc1cccc(/C(C)=N/NS(=O)(=O)c2ccc(Cl)cc2)c1`, the IC50 in series [3] was > 47.1 µM (inactive). The EC50 in series [4] was > 53 µM (inactive).

For `CC(C)(C)c1ccc(OC(=O)N2CCOCC2)cc1`, the figures for the EC50 (in series [1]; in series [2]; in the series with H4) were 23.7 µM (active), > 120 µM (not active) and 1.3 µM (active), respectively.

Regarding `Cc1nc2cnc(N3CCNCC3)nc2n(-c2ccccc2)c1=O`, at Cytochrome P450 3A4, the AC50 (commonly the concentration at which the activity in the assay is half-maximal) was 31.6 µM (inconclusive).

On to `c1ccc(-c2ccc(-c3csnn3)cc2)cc1`, for which the EC50 was 0.186 µM (active) in series [1], 0.326 µM (active) in series [2] and 27.5 µM (active) with H4.

As for `CCCP(=O)(CC(=O)N(CC)CC)c1ccccc1` (centres undefined), in [3], the IC50 was > 47.1 µM (inactive). The EC50 in series [4] was > 53 µM (inactive).

As to `COc1ccccc1C1C(C(=O)c2sc(C)nc2C)=C(O)C(=O)N1CCN1CCOCC1` (centres undefined), the IC50 in [3] was > 47.1 µM (inactive). Also, in series [4], the EC50 was > 53 µM (inactive).

For the compound `CSc1ncc(Cl)c(C(=O)Nc2ccc(S(=O)(=O)N3CCOCC3)cc2)n1`, in series [3], the IC50 is > 47.1 µM (inactive). Besides, the EC50 in [4] is > 53 µM (inactive).

Take `C/C(CCN1CCc2nc(-c3ccccc3)c(-c3ccccc3)cc2C1)=N\OC[C@@H](C)[C@H](OCc1ccccc1)C(C)C`: the AC50 on Cytochrome P450 3A4 was 3.98 µM (inconclusive).

On to `COc1ccc(S(=O)(=O)N2CCCC(C(=O)NCc3ccncc3)C2)cc1` (centres undefined), for which the IC50 in [3] was > 47.1 µM (inactive). Also, in series [4], the EC50 is > 53 µM (inactive).

Consider `Cc1cc(-c2cccc([N+](=O)[O-])c2)nc2ccc3ccccc3c12`, for which the AC50 at Cytochrome P450 2C19 (read-out: AC50) was 20 µM (inconclusive); on Cytochrome P450 3A4, 3.16 µM (inconclusive).

For the compound `O=c1c2ccccc2nc2n1CC/C2=C\c1ccccc1[N+](=O)[O-]`, the AC50 is 3.98 µM (inconclusive) on Cytochrome P450 2C19 (read-out: AC50) and 10 µM (inconclusive) at Cytochrome P450 3A4.

Turning to `Cc1ccc(C)c(NC(=S)Nc2ncccc2C)c1`, the IC50 in series [3] was > 47.1 µM (inactive). The EC50 in series [4] was > 53 µM (inactive).

Take `O=C(O)c1ccccc1-c1ccccc1C(=O)Nc1ccccc1`: the figures for the AC50 on Cytochrome P450 3A4 and at Cytochrome P450 2C9 were 28.2 µM (inconclusive) and 35.5 µM (inconclusive), respectively.

For `O=C(CSc1nc(-c2ccc(F)cc2)cs1)N1CCOCC1`, the figures for the EC50 (in [1]; in [2]; in the series with H4) were 10.1 µM (active), 7.79 µM (active) and 14.3 µM (active), respectively.

Regarding `COc1cc(C)ccc1OCCOc1ccccc1Cl`, the EC50 in series [1] was 32.5 µM (active); in [2], 87.3 µM (active); in the series on H4 it was 18.6 µM (active).

Turning to `Cc1noc(C)c1COC(=O)c1ccc(-c2nc3ccccc3s2)s1`, the results for the EC50 (in series [1]; in series [2]; in the series on H4) were 0.414 µM (active), 0.245 µM (active) and 13 µM (active), respectively.

With `O=C(O)c1cc(S(=O)(=O)N2CCCCC2)ccc1F`, on Cytochrome P450 3A4, the AC50 was 1.26 µM (inconclusive).

With `O=[N+]([O-])/C(C(Cl)=C(Cl)Cl)=C(/NC1CC1)Sc1ccccc1`, in series [3], the IC50 is > 47.1 µM (inactive). The EC50 in [4] was > 53 µM (inactive).

Take `COc1ccc(C2=C(C#N)C(=O)OC2)cc1`: the results for the AC50 at Cytochrome P450 3A4 and on Cytochrome P450 2C9 were 31.6 µM (inconclusive) and 39.8 µM (inconclusive), respectively.

For the compound `Cc1ccnc(NC(=S)NC(=O)/C=C/c2ccco2)c1`, the EC50 was 0.458 µM (active) in [1], 9.64 µM (active) in series [2] and > 120 µM (not active) in the series on H4.

On to `Cc1cccc(C)c1OC[C@@H](N)C(C)C`, for which the AC50 on Cytochrome P450 3A4 is 20 µM (inconclusive).

As for `CCCn1c(=N)c(S(=O)(=O)c2ccccc2)cc2c(=O)n3ccccc3nc21`, the IC50 in series [3] is > 47.1 µM (inactive). In addition, the EC50 in series [4] was > 53 µM (inactive).

Turning to `CC1CCc2c(sc3nc(CSc4n[nH]c(N)n4)nc(O)c23)C1` (centres undefined), the EC50 in series [1] is 15.5 µM (active); in series [2], 27.2 µM (active); with H4, 13.2 µM (active).

As to `CC[C@H]1C2=C3C(CC[C@H]4C(OC)OC[C@](C)([C@@H]34)N(C(=O)OC(C)(C)C)C2)C(CO)C1CO` (some centres undefined), the AC50 result was “inconclusive” on Cytochrome P450 2C19, 12.6 µM (inconclusive) at Cytochrome P450 1A2, 10 µM (inconclusive) on Cytochrome P450 3A4 and 25.1 µM (inconclusive) at Cytochrome P450 2C9.

With `CC1=C(C(=O)OCc2ccccc2)C(c2ccc3ccccc3c2)NC(=O)N1CCCCCC(=O)O` (centres undefined), the AC50 on Cytochrome P450 2C19 (read-out: AC50) was 39.8 µM (inconclusive); on Cytochrome P450 2D6 it was 39.8 µM (inconclusive); on Cytochrome P450 1A2 it was 20 µM (inconclusive); on Cytochrome P450 3A4, 10 µM (inconclusive).

Consider `CC(=O)C(Sc1nn(C)c(=S)s1)C(=O)Nc1ccccc1` (centres undefined), for which the values for the EC50 (in [1]; in series [2]; in the series with H4) were 23.9 µM (active), 12.4 µM (active) and 14.3 µM (active), respectively.

Take `CS(=O)(=O)c1ccccc1COC(=O)Nc1ccc(Cl)cc1`: the AC50 on Cytochrome P450 2D6 is 10 µM (inconclusive); on Cytochrome P450 3A4, 12.6 µM (inconclusive).

Regarding `O=S(=O)(c1ccc(Cl)cc1)N1c2ccccc2Oc2nc3ccccc3nc21`, the EC50 (in series [1]; in series [2]; in the series on H4) was > 120 µM (not active) each time.

With `CCN(CC)c1ccc(NC(=O)CSc2nc(O)c3c(C)cc(C)nc3n2)cc1`, the EC50 in the series “cells [5]” and in “cells [6]” was > 350 µM (not active) in each case.

With `O=C(NCCc1ccccc1)C1CCN(S(=O)(=O)c2ccc(-n3cnnn3)cc2)CC1`, the EC50 in “cells [5]” and in “cells [6]” was > 350 µM (not active) throughout.

As for `CCc1ccc(N2CC(C)Cn3c2nc2c3c(=O)n(CCN3CCOCC3)c(=O)n2C)cc1` (centres undefined), the AC50 was 39.8 µM (inconclusive) at Cytochrome P450 3A4 and 0.178 µM (inconclusive) at Cytochrome P450 2C9.

Consider `COC(=O)C(C)Sc1nc(O)c2cnn(-c3ccc(C)cc3)c2n1` (centres undefined), for which the AC50 on Cytochrome P450 2C19 (read-out: AC50) was 7.94 µM (inconclusive); on Cytochrome P450 3A4, 14.1 µM (inconclusive); on Cytochrome P450 2C9, 3.55 µM (inconclusive).

Take `O=C(CN1CCCC1)Nc1nc(-c2ccc3c(c2)CCN3C(=O)c2ccccc2F)cs1`: the EC50 is 12.9 µM (active) in series [1], 24.4 µM (active) in series [2] and 16.7 µM (inconclusive) with H4.

Regarding `COC(=O)CSc1nc2ccccn2c(=O)c1C=O`, the values for the EC50 (in series [1]; in series [2]; in the series with H4) were 28.5 µM (active), 18.5 µM (active) and > 120 µM (inconclusive), respectively.

The record behind these values is ChEMBL document CHEMBL1201862, “PubChem BioAssay data set” (2004).
